Five compounds from ChEMBL document CHEMBL5579899, “Discovery and In Vivo Exploration of 1,3,4-Oxadiazole and α-Fluoroacrylate Containing IL-17 Inhibitors” (J Med Chem, 2024) can be followed below.

In general, Papp A→B refers to how fast a substance crosses the layer from the apical side. In general, IC50 refers to the concentration that gives 50% inhibition. As a reminder, the logD is the decadic logarithm of the distribution of all forms, ionised or not, between an organic phase and buffer at a given pH. By solubility is commonly meant the concentration that dissolves in the medium under given conditions. Broadly, the clearance is the volume of plasma or blood freed of the substance per unit of time. What is called AUC is the area under the concentration-time curve, a measure of exposure. The bioavailability is the share of a dose that reaches the circulation, judged against a reference dose that is usually intravenous.

Molecules are shown by their SMILES. ≈ marks a conversion by molar mass, not a printed value.

Tested on in the first data set: not listed separately
The data set is described as follows: Apparent permeability coefficient of the compound across apical to basolateral side in dog MDCK cells by high-throughput analysis. The class given is ADME, cell-based, Canis lupus familiaris.
Conditions: not given
Take `C=C(F)C(=O)N[C@H](c1cn2ncc([C@@H](COC)N3C[C@@H](C(F)(F)F)NC3=O)cc2n1)C1CCC(F)(F)CC1`: the apparent permeability from apical to basolateral (Papp A→B) was determined as 6.5 ×10⁻⁶ cm/s.

Consider `COC[C@H](c1cnn2cc([C@@H](Nc3noc(C(C)(F)F)n3)C3CCC(F)(F)CC3)nc2c1)N1C[C@@H](C(F)(F)F)NC1=O`, for which the apical-to-basolateral permeability (Papp A→B) amounted to 20 ×10⁻⁶ cm/s.

For `COC[C@H](c1cnn2cc([C@@H](NC(=O)C(C)(F)F)C3CCC(F)(F)CC3)nc2c1)N1C[C@@H](C(F)(F)F)NC1=O`, the apparent permeability from apical to basolateral (Papp A→B) was determined as 5.5 ×10⁻⁶ cm/s.

As to `CC(F)(F)c1nnc(N[C@H](c2cn3ncc([C@@H](C4CC4)N4C[C@@H](C(F)(F)F)NC4=O)cc3n2)C2CCC(F)(F)CC2)o1`, the apical-to-basolateral permeability (Papp A→B) was found to be 10 ×10⁻⁶ cm/s.

In the case of `C/C=C(/F)C(=O)N[C@H](c1cn2ncc([C@@H](COC)N3C[C@@H](C(F)(F)F)NC3=O)cc2n1)C1CCC(F)(F)CC1`, the Papp A→B was found to be 17 ×10⁻⁶ cm/s.

Tested on in another data set: not listed separately
The data set is described as follows: Inhibition of biotinylated human IL-17A/AF647-labeled human IL-17RA protein-protein interaction preincubated for 30 mins with compound followed by addition of AF647-labeled human IL-17RA incubated for 90 min by TR-FRET assay.
Conditions: not given
`C=C(F)C(=O)N[C@H](c1cn2ncc([C@@H](COC)N3C[C@@H](C(F)(F)F)NC3=O)cc2n1)C1CCC(F)(F)CC1`: the IC50 was 31 nM.

In the case of `COC[C@H](c1cnn2cc([C@@H](Nc3noc(C(C)(F)F)n3)C3CCC(F)(F)CC3)nc2c1)N1C[C@@H](C(F)(F)F)NC1=O`, the IC50 was determined as 30 nM.

Take `COC[C@H](c1cnn2cc([C@@H](NC(=O)C(C)(F)F)C3CCC(F)(F)CC3)nc2c1)N1C[C@@H](C(F)(F)F)NC1=O`: the IC50 turned out to be 85 nM.

Consider `CC(F)(F)c1nnc(N[C@H](c2cn3ncc([C@@H](C4CC4)N4C[C@@H](C(F)(F)F)NC4=O)cc3n2)C2CCC(F)(F)CC2)o1`, for which the IC50 stood at 21 nM.

In the case of `C/C=C(/F)C(=O)N[C@H](c1cn2ncc([C@@H](COC)N3C[C@@H](C(F)(F)F)NC3=O)cc2n1)C1CCC(F)(F)CC1`, the concentration for half-maximal inhibition (IC50) is 11 nM.

Tested on in a further data set: not listed separately
The data set is described as follows: Inhibition of IL-6 production in IL-17/TNF-alpha stimulated human NHDF cells incubated for 24 hrs by ELISA. The format is functional, cell-based. The conditions noted are these: 24 h. Background: ELISA stands for enzyme-linked immunosorbent assay.
Consider `C=C(F)C(=O)N[C@H](c1cn2ncc([C@@H](COC)N3C[C@@H](C(F)(F)F)NC3=O)cc2n1)C1CCC(F)(F)CC1`, for which half-maximal inhibition (IC50) was put at 27 nM.

In the case of `COC[C@H](c1cnn2cc([C@@H](Nc3noc(C(C)(F)F)n3)C3CCC(F)(F)CC3)nc2c1)N1C[C@@H](C(F)(F)F)NC1=O`, the IC50 amounted to 27 nM.

On to `COC[C@H](c1cnn2cc([C@@H](NC(=O)C(C)(F)F)C3CCC(F)(F)CC3)nc2c1)N1C[C@@H](C(F)(F)F)NC1=O`, for which the half-inhibitory concentration (IC50) is 74 nM.

In turn, `CC(F)(F)c1nnc(N[C@H](c2cn3ncc([C@@H](C4CC4)N4C[C@@H](C(F)(F)F)NC4=O)cc3n2)C2CCC(F)(F)CC2)o1` returned an IC50 of 6 nM.

Consider `C/C=C(/F)C(=O)N[C@H](c1cn2ncc([C@@H](COC)N3C[C@@H](C(F)(F)F)NC3=O)cc2n1)C1CCC(F)(F)CC1`, for which the concentration for half-maximal inhibition (IC50) is 4 nM.

Tested on in another data set: not listed separately
The data set is described as follows: Lipophilicity, logD of compound at pH 7.4. The class given is physicochemical. Particulars: buffer.
`C=C(F)C(=O)N[C@H](c1cn2ncc([C@@H](COC)N3C[C@@H](C(F)(F)F)NC3=O)cc2n1)C1CCC(F)(F)CC1` yielded a logD of 2.5.

`COC[C@H](c1cnn2cc([C@@H](Nc3noc(C(C)(F)F)n3)C3CCC(F)(F)CC3)nc2c1)N1C[C@@H](C(F)(F)F)NC1=O` registered a pH-dependent lipophilicity (logD) of 3.7.

`COC[C@H](c1cnn2cc([C@@H](NC(=O)C(C)(F)F)C3CCC(F)(F)CC3)nc2c1)N1C[C@@H](C(F)(F)F)NC1=O` had a logD of 2.5.

In turn, `CC(F)(F)c1nnc(N[C@H](c2cn3ncc([C@@H](C4CC4)N4C[C@@H](C(F)(F)F)NC4=O)cc3n2)C2CCC(F)(F)CC2)o1` had a logD of 3.9.

Take `C/C=C(/F)C(=O)N[C@H](c1cn2ncc([C@@H](COC)N3C[C@@H](C(F)(F)F)NC3=O)cc2n1)C1CCC(F)(F)CC1`: the logD stood at 3.

Tested on in another data set: not listed separately
The data set is described as follows: Equilibrium solubility of compound […] at pH 6.8 by high-throughput analysis. The format is physicochemical.
Conditions: not given
Take `C=C(F)C(=O)N[C@H](c1cn2ncc([C@@H](COC)N3C[C@@H](C(F)(F)F)NC3=O)cc2n1)C1CCC(F)(F)CC1`: the solubility is > 750 µM.

In turn, `COC[C@H](c1cnn2cc([C@@H](Nc3noc(C(C)(F)F)n3)C3CCC(F)(F)CC3)nc2c1)N1C[C@@H](C(F)(F)F)NC1=O` returned a solubility of 130 µM (≈ 79.1 µg/mL).

As for `COC[C@H](c1cnn2cc([C@@H](NC(=O)C(C)(F)F)C3CCC(F)(F)CC3)nc2c1)N1C[C@@H](C(F)(F)F)NC1=O`, the solubility is > 750 µM.

As to `CC(F)(F)c1nnc(N[C@H](c2cn3ncc([C@@H](C4CC4)N4C[C@@H](C(F)(F)F)NC4=O)cc3n2)C2CCC(F)(F)CC2)o1`, the concentration in solution (solubility) came to 45 µM (≈ 27.2 µg/mL).

The compound `C/C=C(/F)C(=O)N[C@H](c1cn2ncc([C@@H](COC)N3C[C@@H](C(F)(F)F)NC3=O)cc2n1)C1CCC(F)(F)CC1` returned a solubility of 600 µM (≈ 338 µg/mL).

Tested on in the next data set: not listed separately
The data set is described as follows: Metabolic stability in rat liver microsomes assessed as intrinsic clearance. The format is ADME, Microsome. The conditions noted are these: read-out: CLH. In general terms: Liver microsomes are vesicles of endoplasmic reticulum, rich in cytochrome P450 enzymes.
For the compound `C=C(F)C(=O)N[C@H](c1cn2ncc([C@@H](COC)N3C[C@@H](C(F)(F)F)NC3=O)cc2n1)C1CCC(F)(F)CC1`, the microsomal CLint was 33 µL/min/mg.

On to `COC[C@H](c1cnn2cc([C@@H](Nc3noc(C(C)(F)F)n3)C3CCC(F)(F)CC3)nc2c1)N1C[C@@H](C(F)(F)F)NC1=O`, for which the microsomal CLint was 33 µL/min/mg.

For the compound `COC[C@H](c1cnn2cc([C@@H](NC(=O)C(C)(F)F)C3CCC(F)(F)CC3)nc2c1)N1C[C@@H](C(F)(F)F)NC1=O`, the microsomal CLint came out at 26 µL/min/mg.

Regarding `CC(F)(F)c1nnc(N[C@H](c2cn3ncc([C@@H](C4CC4)N4C[C@@H](C(F)(F)F)NC4=O)cc3n2)C2CCC(F)(F)CC2)o1`, the microsomal CLint came out at 37 µL/min/mg.

Consider `C/C=C(/F)C(=O)N[C@H](c1cn2ncc([C@@H](COC)N3C[C@@H](C(F)(F)F)NC3=O)cc2n1)C1CCC(F)(F)CC1`, for which the microsomal CLint was determined as 240 µL/min/mg.

Tested on in the next data set: not listed separately
The data set is described as follows: Metabolic stability in human liver microsomes assessed as intrinsic clearance. The class given is ADME, Microsome. Particulars: read-out: CLH.
As to `C=C(F)C(=O)N[C@H](c1cn2ncc([C@@H](COC)N3C[C@@H](C(F)(F)F)NC3=O)cc2n1)C1CCC(F)(F)CC1`, the microsomal CLint is 11 µL/min/mg.

Consider `COC[C@H](c1cnn2cc([C@@H](Nc3noc(C(C)(F)F)n3)C3CCC(F)(F)CC3)nc2c1)N1C[C@@H](C(F)(F)F)NC1=O`, for which the microsomal CLint is 49 µL/min/mg.

Take `COC[C@H](c1cnn2cc([C@@H](NC(=O)C(C)(F)F)C3CCC(F)(F)CC3)nc2c1)N1C[C@@H](C(F)(F)F)NC1=O`: the microsomal CLint was 15 µL/min/mg.

In the case of `CC(F)(F)c1nnc(N[C@H](c2cn3ncc([C@@H](C4CC4)N4C[C@@H](C(F)(F)F)NC4=O)cc3n2)C2CCC(F)(F)CC2)o1`, the microsomal CLint is 66 µL/min/mg.

Consider `C/C=C(/F)C(=O)N[C@H](c1cn2ncc([C@@H](COC)N3C[C@@H](C(F)(F)F)NC3=O)cc2n1)C1CCC(F)(F)CC1`, for which the microsomal CLint is 159 µL/min/mg.

Tested on in a further data set: not listed separately
The data set is described as follows: Plasma clearance in Sprague-Dawley rat at 1 mg/kg,iv measured upto 24 hrs by LC-MS/MS analysis. The format is ADME, organism-based.
Conditions: not given
The compound `CC(F)(F)c1nnc(N[C@H](c2cn3ncc([C@@H](C4CC4)N4C[C@@H](C(F)(F)F)NC4=O)cc3n2)C2CCC(F)(F)CC2)o1` registered a clearance of 56 mL/min/kg.

Tested on in a further data set: not listed separately
The data set is described as follows: AUC in Sprague-Dawley rat at 3 mg/kg,po measured upto 24 hrs by LC-MS/MS analysis. The class given is ADME, organism-based. The conditions noted are these: Sprague-Dawley, in vivo.
Consider `CC(F)(F)c1nnc(N[C@H](c2cn3ncc([C@@H](C4CC4)N4C[C@@H](C(F)(F)F)NC4=O)cc3n2)C2CCC(F)(F)CC2)o1`, for which the AUC at 24 h is 0.569 µM·h.

Still in this data set, the particulars now being: in vivo, po, 3 mg/kg, 24 h.
`C=C(F)C(=O)N[C@H](c1cn2ncc([C@@H](COC)N3C[C@@H](C(F)(F)F)NC3=O)cc2n1)C1CCC(F)(F)CC1` came in with an exposure (AUC) of 0.025 µM·h.

Take `C/C=C(/F)C(=O)N[C@H](c1cn2ncc([C@@H](COC)N3C[C@@H](C(F)(F)F)NC3=O)cc2n1)C1CCC(F)(F)CC1`: the AUC was found to be 0.053 µM·h.

Tested on in a further data set: not listed separately
The data set is described as follows: Oral bioavailability in Sprague-Dawley rat at 3 mg/kg measured upto 24 hrs by LC-MS/MS analysis. The format is ADME, organism-based. The conditions noted are these: Sprague-Dawley, in vivo.
As to `CC(F)(F)c1nnc(N[C@H](c2cn3ncc([C@@H](C4CC4)N4C[C@@H](C(F)(F)F)NC4=O)cc3n2)C2CCC(F)(F)CC2)o1`, the bioavailability turned out to be 41%.

The data set is the same for the next values; noted with them: in vivo, po, 3 mg/kg, 24 h.
`C=C(F)C(=O)N[C@H](c1cn2ncc([C@@H](COC)N3C[C@@H](C(F)(F)F)NC3=O)cc2n1)C1CCC(F)(F)CC1` yielded an F of 113%.

Compound `C/C=C(/F)C(=O)N[C@H](c1cn2ncc([C@@H](COC)N3C[C@@H](C(F)(F)F)NC3=O)cc2n1)C1CCC(F)(F)CC1` gave an F of 55%.

The subject of the next data set is Rattus norvegicus. The data set is described as follows: Antiarthritic activity in antigen-induced arthritis Lewis rat model assessed as reduction in knee swelling at 10 mg/kg,po bid administrated for 4 days. Particulars: time 4 day. The class given is functional. More on the design: scale not given: the % may be the effect or the level left.
For `CC(F)(F)c1nnc(N[C@H](c2cn3ncc([C@@H](C4CC4)N4C[C@@H](C(F)(F)F)NC4=O)cc3n2)C2CCC(F)(F)CC2)o1`, the Activity was 68%.

Tested on in the next data set: not listed separately
The data set is described as follows: Hepatotoxicity in dog assessed as increase in serum liver enzyme at 50 mg/kg administration measured after 3 days. The class given is toxicity, organism-based, Canis lupus familiaris. The conditions noted are these: in vivo, 72 h, time 3 day.
As to `CC(F)(F)c1nnc(N[C@H](c2cn3ncc([C@@H](C4CC4)N4C[C@@H](C(F)(F)F)NC4=O)cc3n2)C2CCC(F)(F)CC2)o1`, the Activity result is on record as “Toxic”.
